Experimental data taken from US20260365633A1, “Novel PEM Structures for SBX” (Roche Sequencing Solutions, Inc., priority 2023, published 2026).
Where two headings read alike, the source gives them in different places.

Tests used:
[1] = biological target: T1, C4760 DNA polymerase (a variant of DPO4) (Saccharolobus solfataricus, UniProt Q97W02, A155G/A42V/D156R/D292Y/D294N/E291S/E324K/E325K/E327K/E63R/E79L/G187P/G299W/I153V/I189F/I248T/I295S/K152A/K317Q/K321Q/K56Y/K78D/L293W/M76W/N188Y/P184Q/Q82W/Q83G/R300S/S297Y/S86E/T290K/T301W/V289W/V296Q); type: biochemical, Sulfolobus solfataricus; details: for XNTP polymerization relative to compound 10: 30 minutes at 23 °C; for XNTP polymerization relative to compound 14: compound 16 at 2 Mm, compound 17 at 0.5, 1, 2, 3 Mm, 30 minutes at 37 °C, FIG. 13
T1 construct: Eco or Kod SSB in reaction as additive
T1 sequence (Q97W02 1-340 A155G/A42V/D156R/D292Y/D294N/E291S/E324K/E325K/E327K/E63R/E79L/G187P/G299W/I153V/I189F/I248T/I295S/K152A/K317Q/K321Q/K56Y/K78D/L293W/M76W/N188Y/P184Q/Q82W/Q83G/R300S/S297Y/S86E/T290K/T301W/V289W/V296Q): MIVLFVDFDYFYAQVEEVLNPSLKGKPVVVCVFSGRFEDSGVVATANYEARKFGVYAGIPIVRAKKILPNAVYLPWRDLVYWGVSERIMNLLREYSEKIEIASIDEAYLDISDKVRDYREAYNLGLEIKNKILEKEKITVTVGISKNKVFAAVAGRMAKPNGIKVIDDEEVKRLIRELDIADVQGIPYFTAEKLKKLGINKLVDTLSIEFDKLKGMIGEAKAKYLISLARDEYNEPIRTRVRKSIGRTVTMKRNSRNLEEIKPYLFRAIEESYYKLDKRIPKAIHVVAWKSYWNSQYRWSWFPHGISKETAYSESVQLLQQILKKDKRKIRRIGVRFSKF
Protocol: (§1) PEM activity of compound 12 was tested in primer extension assays using the HIV2 100mer template. Primer extension reactions included the following reagents: 50 Mm TrisCl, 200 Mm NH4Oac, 20% PEG8K, 5% NMS, 0.6 nmol PP-60.20, 0.6 Mm MnCl2, 2.75 μg/μl Eco single-strand binding protein (SSB), 1 M urea, 50 pmol each XNTP, 1.1 pmol template, 1 pmol [COMPOUND LEFT OUT] primer, 1.2 μg/μl purified recombinant C4760 DNA polymerase (SEQ ID NO: 2), and 0.5, 1, or 1.5 Mm PEM. 10 μL primer extension reactions were run for 30 minutes at 23 °C and reaction products were analyzed by gel electrophoresis.
as §1, with “compounds 13 and 14” for “compound 12”, “(a variant of DPO4, see SEQ” for “(SEQ”, “1, 1.52,” for “1,”, “2.5” for “1.5”, “electrophoresis. A representative gel showing primer extension products is presented in FIG. 11 (the position of the full length HIV2 100mer is indicated by the arrow).” for “electrophoresis.”
PEM activity of compounds 16, 17, and 18 and combinations thereof were tested in primer extension assays using the HIV2-derived 100mer template. […] 10 μL primer extension reactions were run for 30 minutes at 37 °C and reaction products were analyzed by gel electrophoresis. A representative gel showing primer extension products is presented in FIG. 13 (the position of a 100mer product is indicated by the arrow).

nucleic acid polymerase = assay: PEM activity summary: primer extension on 45mer, 100mer, 150mer, 222mer DNA templates, gel (Table 2); type: biochemical; details: preliminary functional characterization
Protocol: In some instances, the PEM compounds of the present disclosure were tested in primer extension reactions using DNA templates of the following lengths: A) 45mer; B) 100mer; C) 150mer; and D) 222mer.

DNA polymerase = assay: Primer extension with XNTPs, gel electrophoresis (PEM screen, 45mer template); type: biochemical; details: for primer extension products with XNTPs: 45mer template, FIG. 4, vs no PEM additive (up to only around 14 XNTPs)
From the text: The Sequencing by Expansion (SBX) methodology developed by the inventors provides significant performance enhancements in sequence read efficiency and accuracy of Xpandomers relative to native DNA. However, initial transcription of the sequence of the natural DNA template onto the measurable Xpandomer relies on the ability of DNA polymerase to utilize XNTPs as substrates (the generalized structure of an XNTP is discussed herein with reference to FIG. 1A and FIG. 2). […] In an effort to improve the efficiency and accuracy of XNTP polymerization into Xpandomers, several PEMs were screened for the ability to enhance DNA polymerase primer extension reactions using XNTPs as substrates.
A representative primer extension reaction may include the following reagents: 2 pmol primer, 2.2 pmol 45mer [COMPOUND LEFT OUT] template, 50 pmol of each XNTP (XATP, XCTP, XGTP, and XTTP), 50 Mm Tris HCl, Ph 6.79, 200 Mm NaCl, 20% PEG, 5% NMS, 0.5 nmol polyphosphate 60.19, 0.3 Mm MnCl2, and 0.6 μg of purified recombinant DNA polymerase protein. Reactions may be run for 1 hour at 23 °C. Reaction products (i.e., constrained Xpandomers) are treated to cleave the phosphoramidate bonds, thereby generating linearized Xpandomers. Reaction products may be analyzed using gel electrophoresis on 4-12% acrylamide gels to resolve and visualize Xpandomer products of different lengths. For the PEM screen described above, PEMs were typically tested in the micro to millimolar range.

[2] = biological target: T1, C4760 DNA polymerase (a variant of DPO4); assay: Primer extension on 45mer RNA template (HIV2) with C4760 polymerase, gel; type: biochemical, Sulfolobus solfataricus; details: 2 Mm PEM, 45mer RNA template derived from HIV2, Kod SSB, 30 minutes at 37 °C
Protocol: To begin to investigate the potential of PEMs to enhance diverse polymerase reactions, the ability of PEMS to enable DNA polymerase to utilize RNA as a template was tested. An initial screen of several compounds set forth in Table 1 was conducted using a 45mer RNA template derived from the HIV2 genome sequence. Primer extension reactions included the following reagents: 50 Mm TrisCl, 200 Mm NH4OAc, 20% PEG8K, 5% NMS, 0.6 nmol PP-60.20, 0.6 Mm MnCl2, 2 μg Kod single-strand binding protein (SSB), 1 M urea, 50 pmol each XNTP, 0.5 pmol template, 0.5 pmol [COMPOUND LEFT OUT] primer, 1.2 μg purified recombinant C4760 DNA polymerase (a variant of DPO4, see SEQ ID NO: 2), and 2 Mm PEM. 10 μL primer extension reactions were run for 30 minutes at 37 °C and reaction products were analyzed by gel electrophoresis.

[3] = 0.5, 1, 1.52, or 2.5 Mm PEM, FIG. 11

**Q.** How did the “XNTP polymerization relative to compound 10” value [1, 3] turn out when CCOC(=O)c1cc(-c2cn(-c3ccc(C(=O)O)c(O)c3)nn2)nc(-c2cn(-c3ccc(C(=O)O)c(O)c3)nn2)c1 [Compound 14, 4,4′-((4-(ethoxycarbonyl)pyridine-2,6-diyl)bis(1H-1,2,3-triazole-4,1-diyl))bis(2-hydroxybenzoic acid)] was run?
**A.** comparable to that of compound 10

**Q.** Which “Functional Category: PEM effect” value (nucleic acid polymerase) does the source give for CCNC(=O)c1cc(-c2cn(-c3ccc(C(=O)NCC(=O)NCC(=O)O)c(C(F)(F)F)c3)nn2)nc(-c2cn(-c3ccc(C(=O)NCC(=O)NCC(=O)O)c(C(F)(F)F)c3)nn2)c1 [Compound 113, 2,2′-((2,2′-((4,4′-((4-(ethylcarbamoyl)pyridine-2,6-diyl)bis(1H-1,2,3-triazole-4,1-diyl))bis(2-(trifluoromethyl)benzoyl))bis(azanediyl))bis(acetyl))bis(azanediyl))diacetic acid] here?
**A.** PEM effect

**Q.** For O=C(O)c1ccc(-n2cc(-c3ccc4[nH]c5ccc(-c6cn(-c7ccc(C(=O)O)c(O)c7)nn6)cc5c4c3)nn2)cc1O [Compound 4, 4,4′-((9H-carbazole-3,6-diyl)bis(1H-1,2,3-triazole-4,1-diyl))bis(2-hydroxybenzoic acid)], which “primer extension products with XNTPs” value (DNA polymerase) is on record?
**A.** considerably longer extension products

**Q.** With Cc1cc(-c2cn(-c3ccc(C(=O)O)c(O)c3)nn2)nc(-c2cn(-c3ccc(C(=O)O)c(O)c3)nn2)c1 [Compound 13, 4,4′-((4-methylpyridine-2,6-diyl)bis(1H-1,2,3-triazole-4,1-diyl))bis(2-hydroxybenzoic acid)] as the compound, how does the “XNTP polymerization relative to compound 10” value [1, 3] read?
**A.** comparable to that of compound 10

**Q.** How did the “primer extension activity with XNTPs” value (DNA polymerase; FIG. 5, PEM at various concentrations, vs no PEM additive) turn out when O=C(O)c1ccc(-n2cc(-c3cncc(-c4cn(-c5ccc(C(=O)O)c(O)c5)nn4)c3)nn2)cc1O [Compound 2, 4,4′-(pyridine-3,5-diylbis(1H-1,2,3-triazole-4,1-diyl))bis(2-hydroxybenzoic acid)] was run?
**A.** significantly enhances primer extension activity

**Q.** COC(=O)c1cc(-c2cn(-c3ccc(C(=O)O)c(O)c3)nn2)nc(-c2cn(-c3ccc(C(=O)O)c(O)c3)nn2)c1 [Compound 16, 4,4′-((4-(methoxycarbonyl)pyridine-2,6-diyl)bis(1H-1,2,3-triazole-4,1-diyl))bis(2-hydroxybenzoic acid)] was tested. Which “XNTP polymerization relative to compound 14” value [1] did it give?
**A.** comparable to that of compound 14

**Q.** With O=C(O)c1ccc(-n2cc(-c3cccc(-c4cn(-c5ccc(C(=O)O)c(O)c5)nn4)c3)nn2)cc1 [Compound 176, 4-(4-{m-[1-(p-Carboxyphenyl)-1H-1,2,3-triazol-4-yl]phenyl}-1H-1,2,3-triazol-1-yl)-2-hydroxybenzoic acid] as the compound, how does the “Functional Category: PEM effect” value (nucleic acid polymerase) read?
**A.** PEM effect

**Q.** What does the source list for CCNC(=O)c1cc(-c2cn(-c3ccc(C(=O)O)c(O)c3)nn2)nc(-c2cn(-c3ccc(C(=O)O)c(O)c3)nn2)c1 [Compound 17, 4,4′-((4-(ethylcarbamoyl)pyridine-2,6-diyl)bis(1H-1,2,3-triazole-4,1-diyl))bis(2-hydroxybenzoic acid)]?
**A.** XNTP polymerization relative to compound 14 [1]: comparable to that of compound 14; PEM activity on RNA template [2]: display PEM activity on an RNA template

**Q.** With CCNC(=O)c1cc(-c2cn(-c3ccc(C(=O)NCC)c(C(F)(F)F)c3)nn2)nc(-c2cn(-c3ccc(C(=O)NCC)c(C(F)(F)F)c3)nn2)c1 [Compound 236, N-Ethyl-2,6-bis{1-[4-(N-ethylcarbamoyl)-3-(trifluoromethyl)phenyl]-1H-1,2,3-triazol-4-yl}isonicotinamide] as the compound, how does the “Functional Category: PEM effect” value (nucleic acid polymerase) read?
**A.** PEM effect

**Q.** With O=C(O)c1ccc(-n2cc(-c3cccc(-c4cn(-c5ccc(C(=O)O)c(O)c5)nn4)c3)nn2)cc1O [Compound 3, 4,4′-(1,3-phenylenebis(1H-1,2,3-triazole-4,1-diyl))bis(2-hydroxybenzoic acid)] as the compound, how does the “primer extension products with XNTPs” value (DNA polymerase) read?
**A.** considerably longer extension products

**Q.** O=C(NCCO)c1cc(-c2cn(-c3ccc(C(=O)O)c(C(F)(F)F)c3)nn2)nc(-c2cn(-c3ccc(C(=O)O)c(C(F)(F)F)c3)nn2)c1 [Compound 105, 4,4′-((4-((2-hydroxyethyl)carbamoyl)pyridine-2,6-diyl)bis(1H-1,2,3-triazole-4,1-diyl))bis(2-(trifluoromethyl)benzoic acid)] was tested. Which “PEM activity on RNA template” value [2] did it give?
**A.** display PEM activity on an RNA template

**Q.** Which “XNTP polymerization relative to compound 10” value ([1]; 0.5, 1, or 1.5 Mm PEM, FIG. 10) does the source give for N#Cc1cc(-c2cn(-c3ccc(O)c(C(=O)O)c3)nn2)nc(-c2cn(-c3ccc(O)c(C(=O)O)c3)nn2)c1 [Compound 12, 5,5′-((4-cyanopyridine-2,6-diyl)bis(1H-1,2,3-triazole-4,1-diyl))bis(2-hydroxybenzoic acid)] here?
**A.** comparable to that of compound 10

**Q.** How did the “Functional Category: PEM effect” value (nucleic acid polymerase) turn out when CCNC(=O)c1cc(-c2cn(-c3ccc4cc(C(=O)O)ccc4c3)nn2)nc(-c2cn(-c3ccc4cc(C(=O)O)ccc4c3)nn2)c1 [Compound 206, 6-(4-{6-[1-(6-Carboxy-2-naphthyl)-1H-1,2,3-triazol-4-yl]-4-(N-ethylcarbamoyl)-2-pyridyl}-1H-1,2,3-triazol-1-yl)-2-naphthoic acid] was run?
**A.** PEM effect
